Results taken from ChEMBL document CHEMBL1124675, “Synthesis and biological evaluation of a monocyclic, fully functional analogue of compactin” (J Med Chem, 1989).

Biological target: T1, 3-hydroxy-3-methylglutaryl-coenzyme A reductase (Rattus norvegicus, UniProt P51639)
T1 sequence (P51639 whole entry): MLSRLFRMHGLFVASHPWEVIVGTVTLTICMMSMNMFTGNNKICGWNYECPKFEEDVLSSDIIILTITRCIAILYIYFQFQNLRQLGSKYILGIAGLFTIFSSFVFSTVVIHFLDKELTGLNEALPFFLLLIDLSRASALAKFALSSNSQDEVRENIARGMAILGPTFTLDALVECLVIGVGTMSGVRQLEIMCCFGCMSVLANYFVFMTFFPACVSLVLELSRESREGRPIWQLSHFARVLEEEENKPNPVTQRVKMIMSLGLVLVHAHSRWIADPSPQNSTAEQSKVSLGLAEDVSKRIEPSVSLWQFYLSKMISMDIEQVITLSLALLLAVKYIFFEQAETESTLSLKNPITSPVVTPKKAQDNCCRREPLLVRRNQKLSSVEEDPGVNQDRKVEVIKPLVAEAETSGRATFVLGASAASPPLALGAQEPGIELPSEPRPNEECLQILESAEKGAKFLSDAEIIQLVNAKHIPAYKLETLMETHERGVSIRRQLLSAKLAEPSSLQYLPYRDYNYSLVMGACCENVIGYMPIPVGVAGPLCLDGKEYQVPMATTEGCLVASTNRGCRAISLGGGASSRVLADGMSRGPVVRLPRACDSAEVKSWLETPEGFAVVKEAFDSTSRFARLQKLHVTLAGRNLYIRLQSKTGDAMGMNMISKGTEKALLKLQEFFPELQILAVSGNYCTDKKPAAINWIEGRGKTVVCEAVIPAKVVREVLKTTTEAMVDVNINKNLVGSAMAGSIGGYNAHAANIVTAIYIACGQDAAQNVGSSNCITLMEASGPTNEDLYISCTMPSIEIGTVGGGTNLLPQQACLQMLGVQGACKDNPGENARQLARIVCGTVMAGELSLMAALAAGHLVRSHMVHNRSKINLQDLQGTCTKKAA
Test: Ability of compound to inhibit the activity of 3-hydroxy-3-methylglutarylcoenzyme A(HMGR) reductase in rat liver microsomes
Parameters: species or system Microsome

For O=C(O)CC(O)CC(O)CCc1ccccc1 (stereo not given), the IC50 was 600 µM.

For CC[C@H](C)C(=O)O[C@H]1CCC=C2C=C[C@H](C)[C@H](CCC(O)C[C@@H](O)CC(=O)O)C21 (stereo not given in full), the IC50 was 0.013 µM.

CC[C@H](C)C(=O)O[C@H]1C[C@@H](C)C[C@@H]2C=C[C@H](C)[C@H](CCC(O)C[C@@H](O)CC(=O)O)C12 (stereo not given in full) showed an IC50 of 0.0016 µM.

For CC[C@H](C)C(=O)O[C@H]1CCC=C2C=C[C@H](C)[C@H](CCC(=O)C[C@@H](O)CC(=O)O)C21 (stereo not given in full), the IC50 was 0.032 µM.

Work on O=C(O)C[C@H](O)CC(=O)CCc1ccccc1 yielded an IC50 of 1300 µM.
